# How the values were obtained:
# Type in all cases: cell-based
# Details in all cases: Table A; BaF3 cells, 3 days
# [1] = target: T1, HER2 S310F (Homo sapiens, UniProt P04626, S310F); test: BaF3 cell proliferation assay (CellTiterGlo), HER2 S310F
# T1 construct: expressed in transfected cells; host or cells: BaF3 (murine pro-B) cells
# [2] = target: T2, HER2 YVMA (Homo sapiens, UniProt P04626, INS775YVMA); test: BaF3 cell proliferation assay (CellTiterGlo), HER2 YVMA
# T2 construct: expressed in transfected cells; host or cells: BaF3 (murine pro-B) cells
# [3] = target: T3, EGFR V3 (Homo sapiens, UniProt P00533, DELINS30-297G); test: BaF3 cell proliferation assay (CellTiterGlo), EGFR V3
# T3 construct: expressed in transfected cells; host or cells: BaF3 (murine pro-B) cells, retroviral transduction with pMXs-IRES-Blasticidin
# How it was run: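 BaF3 cells made IL-3-independent by retroviral expression of each EGFR or HER2 mutant were treated in triplicate with compound for 72 h. Viability was read by CellTiterGlo ATP luminescence and normalised to vehicle, and EC50 was fitted from dose-response curves.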
# [4] = target: T4, EGFR wt (Homo sapiens, UniProt P00533); test: BaF3 cell proliferation assay (CellTiterGlo), EGFR wt
# T4 construct: expressed in transfected cells; host or cells: BaF3 (murine pro-B) cells, retroviral transduction with pMXs-IRES-Blasticidin
# How it was run: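 BaF3 cells engineered by retroviral transduction to express EGFR and selected for blasticidin resistance and IL-3 independent growth were suspended at 1.3E5 c/ml in RPMI with 10% heat inactivated FBS, 2% L-glutamine and 1% Pen/Strep. They were plated in triplicate in 96 well plates and exposed to vehicle or varying drug concentrations for 3 days. Viability was quantified by CellTiterGlo ATP luminescence, normalized to vehicle, and curves fitted in PRISM.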
# T3 sequence (P00533 with tags, fused parts or gaps DELINS30-297G): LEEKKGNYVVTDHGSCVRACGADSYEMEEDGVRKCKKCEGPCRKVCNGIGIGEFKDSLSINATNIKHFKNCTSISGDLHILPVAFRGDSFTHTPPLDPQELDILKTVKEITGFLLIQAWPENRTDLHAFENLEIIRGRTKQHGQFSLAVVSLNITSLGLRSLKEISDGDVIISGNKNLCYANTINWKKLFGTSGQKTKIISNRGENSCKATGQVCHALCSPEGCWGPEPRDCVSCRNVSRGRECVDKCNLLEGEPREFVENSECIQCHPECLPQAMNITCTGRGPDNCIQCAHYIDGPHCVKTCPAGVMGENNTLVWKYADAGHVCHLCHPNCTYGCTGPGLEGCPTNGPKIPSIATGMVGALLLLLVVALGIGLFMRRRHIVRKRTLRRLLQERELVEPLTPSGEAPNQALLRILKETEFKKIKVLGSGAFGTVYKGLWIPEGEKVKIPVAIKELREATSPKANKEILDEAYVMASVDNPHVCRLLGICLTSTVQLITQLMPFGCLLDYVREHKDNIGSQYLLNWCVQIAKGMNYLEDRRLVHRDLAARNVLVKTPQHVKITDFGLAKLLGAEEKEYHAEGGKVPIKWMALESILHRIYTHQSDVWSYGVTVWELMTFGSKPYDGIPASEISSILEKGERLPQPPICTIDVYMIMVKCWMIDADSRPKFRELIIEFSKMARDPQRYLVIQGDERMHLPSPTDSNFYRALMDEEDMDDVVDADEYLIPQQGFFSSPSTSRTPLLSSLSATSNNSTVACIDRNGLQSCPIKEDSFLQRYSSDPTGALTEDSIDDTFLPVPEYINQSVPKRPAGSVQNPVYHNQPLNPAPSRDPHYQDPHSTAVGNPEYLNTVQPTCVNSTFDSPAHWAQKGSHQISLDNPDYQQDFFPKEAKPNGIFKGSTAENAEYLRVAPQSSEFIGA
# T2 sequence (P04626 with tags, fused parts or gaps INS775YVMA): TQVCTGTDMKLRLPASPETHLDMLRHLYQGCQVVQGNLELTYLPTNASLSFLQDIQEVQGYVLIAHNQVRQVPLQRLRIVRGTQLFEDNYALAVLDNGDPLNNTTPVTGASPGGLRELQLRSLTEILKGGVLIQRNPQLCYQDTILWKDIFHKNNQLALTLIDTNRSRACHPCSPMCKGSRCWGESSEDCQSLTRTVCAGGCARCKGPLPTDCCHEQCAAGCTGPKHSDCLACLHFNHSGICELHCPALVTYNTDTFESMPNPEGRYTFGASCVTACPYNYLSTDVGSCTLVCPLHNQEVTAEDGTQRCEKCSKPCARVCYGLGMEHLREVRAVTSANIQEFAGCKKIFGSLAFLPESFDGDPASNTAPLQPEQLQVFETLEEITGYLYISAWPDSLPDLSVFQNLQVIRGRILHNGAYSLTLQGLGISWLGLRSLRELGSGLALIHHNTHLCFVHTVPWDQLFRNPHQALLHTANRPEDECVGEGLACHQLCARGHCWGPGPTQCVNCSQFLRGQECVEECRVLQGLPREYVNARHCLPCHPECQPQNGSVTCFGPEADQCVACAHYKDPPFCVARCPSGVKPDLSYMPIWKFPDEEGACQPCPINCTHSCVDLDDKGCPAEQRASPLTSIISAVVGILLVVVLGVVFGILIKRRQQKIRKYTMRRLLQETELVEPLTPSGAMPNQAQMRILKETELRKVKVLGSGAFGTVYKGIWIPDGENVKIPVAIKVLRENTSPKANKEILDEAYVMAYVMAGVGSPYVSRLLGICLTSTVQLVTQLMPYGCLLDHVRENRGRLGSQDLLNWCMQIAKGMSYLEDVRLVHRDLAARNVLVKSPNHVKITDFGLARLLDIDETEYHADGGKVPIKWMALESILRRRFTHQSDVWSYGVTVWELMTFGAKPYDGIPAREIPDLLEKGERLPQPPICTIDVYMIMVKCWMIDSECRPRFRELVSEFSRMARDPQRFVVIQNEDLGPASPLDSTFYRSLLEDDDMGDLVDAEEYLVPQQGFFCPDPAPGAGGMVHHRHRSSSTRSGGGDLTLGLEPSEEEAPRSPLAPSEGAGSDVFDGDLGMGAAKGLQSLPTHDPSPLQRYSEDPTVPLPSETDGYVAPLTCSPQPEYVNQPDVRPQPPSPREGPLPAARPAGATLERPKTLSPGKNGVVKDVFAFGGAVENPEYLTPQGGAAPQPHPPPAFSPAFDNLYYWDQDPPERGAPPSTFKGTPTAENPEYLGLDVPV
# T1 sequence (P04626 23-1255 S310F): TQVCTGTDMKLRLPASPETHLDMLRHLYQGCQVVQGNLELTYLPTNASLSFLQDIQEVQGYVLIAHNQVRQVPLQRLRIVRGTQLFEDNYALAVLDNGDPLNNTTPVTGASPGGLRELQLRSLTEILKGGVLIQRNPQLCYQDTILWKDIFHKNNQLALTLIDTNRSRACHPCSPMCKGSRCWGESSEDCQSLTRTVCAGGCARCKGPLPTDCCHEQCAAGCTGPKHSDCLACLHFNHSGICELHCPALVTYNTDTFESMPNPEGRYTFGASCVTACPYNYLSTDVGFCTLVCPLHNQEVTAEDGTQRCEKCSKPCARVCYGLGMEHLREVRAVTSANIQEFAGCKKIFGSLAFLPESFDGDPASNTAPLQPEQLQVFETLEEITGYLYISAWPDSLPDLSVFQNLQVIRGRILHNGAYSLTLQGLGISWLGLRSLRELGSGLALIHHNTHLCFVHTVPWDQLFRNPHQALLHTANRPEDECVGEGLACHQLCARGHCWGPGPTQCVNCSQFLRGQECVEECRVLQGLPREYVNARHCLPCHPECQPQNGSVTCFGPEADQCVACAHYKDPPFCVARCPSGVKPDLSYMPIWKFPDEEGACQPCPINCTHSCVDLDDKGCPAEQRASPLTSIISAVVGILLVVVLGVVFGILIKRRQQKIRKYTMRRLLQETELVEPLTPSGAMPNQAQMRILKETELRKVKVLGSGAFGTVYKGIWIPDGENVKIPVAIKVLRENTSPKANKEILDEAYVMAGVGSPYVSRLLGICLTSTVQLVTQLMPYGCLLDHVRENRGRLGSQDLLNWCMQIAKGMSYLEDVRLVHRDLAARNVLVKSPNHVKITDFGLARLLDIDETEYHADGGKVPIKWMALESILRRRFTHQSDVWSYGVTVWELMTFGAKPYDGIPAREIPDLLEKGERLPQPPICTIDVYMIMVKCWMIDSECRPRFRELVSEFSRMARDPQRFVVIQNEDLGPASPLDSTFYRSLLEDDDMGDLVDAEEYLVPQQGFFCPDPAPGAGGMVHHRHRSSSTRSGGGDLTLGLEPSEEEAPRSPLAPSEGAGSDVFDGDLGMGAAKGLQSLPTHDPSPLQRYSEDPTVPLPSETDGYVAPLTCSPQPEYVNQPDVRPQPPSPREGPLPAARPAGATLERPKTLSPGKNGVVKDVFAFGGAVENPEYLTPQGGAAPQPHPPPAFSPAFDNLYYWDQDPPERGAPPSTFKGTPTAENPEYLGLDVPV
# T4 sequence (P00533 25-1210): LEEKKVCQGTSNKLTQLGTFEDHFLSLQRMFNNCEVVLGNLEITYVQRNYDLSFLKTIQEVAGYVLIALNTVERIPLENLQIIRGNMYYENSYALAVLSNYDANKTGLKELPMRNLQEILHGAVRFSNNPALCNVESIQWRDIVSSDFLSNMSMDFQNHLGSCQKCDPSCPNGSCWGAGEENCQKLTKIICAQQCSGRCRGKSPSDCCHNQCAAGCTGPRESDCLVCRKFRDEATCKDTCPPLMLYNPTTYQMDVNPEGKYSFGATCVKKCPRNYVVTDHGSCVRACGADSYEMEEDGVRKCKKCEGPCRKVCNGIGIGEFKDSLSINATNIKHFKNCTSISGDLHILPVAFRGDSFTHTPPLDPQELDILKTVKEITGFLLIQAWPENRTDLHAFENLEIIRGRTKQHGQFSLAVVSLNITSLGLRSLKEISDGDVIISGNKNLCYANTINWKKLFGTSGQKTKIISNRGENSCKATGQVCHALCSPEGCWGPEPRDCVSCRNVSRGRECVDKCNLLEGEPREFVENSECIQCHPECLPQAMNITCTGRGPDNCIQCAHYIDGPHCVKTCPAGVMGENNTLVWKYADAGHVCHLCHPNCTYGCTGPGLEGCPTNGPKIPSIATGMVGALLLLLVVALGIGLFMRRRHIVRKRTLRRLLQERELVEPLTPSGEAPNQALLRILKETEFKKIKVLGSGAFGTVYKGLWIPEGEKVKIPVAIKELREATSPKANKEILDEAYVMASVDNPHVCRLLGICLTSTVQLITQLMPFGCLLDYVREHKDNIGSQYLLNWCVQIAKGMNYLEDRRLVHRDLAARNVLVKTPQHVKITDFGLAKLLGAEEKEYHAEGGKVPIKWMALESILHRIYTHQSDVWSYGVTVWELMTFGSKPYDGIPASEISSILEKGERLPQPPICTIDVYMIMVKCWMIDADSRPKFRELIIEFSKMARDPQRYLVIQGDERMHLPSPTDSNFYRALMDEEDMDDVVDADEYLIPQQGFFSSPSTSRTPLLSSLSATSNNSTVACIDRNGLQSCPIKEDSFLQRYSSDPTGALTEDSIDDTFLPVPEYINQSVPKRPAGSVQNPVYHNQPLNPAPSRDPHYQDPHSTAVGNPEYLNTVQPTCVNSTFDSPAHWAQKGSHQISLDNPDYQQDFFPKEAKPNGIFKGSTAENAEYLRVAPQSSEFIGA
IC50 [1],IC50 [2],IC50 [3],IC50 [4],Compound
50 to 100 nM,100 to 500 nM,≤ 50 nM,100 to 500 nM,"C=CC(=O)Nc1cc2c(Nc3cccc(Cl)c3F)ncnc2cc1C#CC12CC1CN(C)C2 (stereo not shown) [Compound 65, N-(4-((3-chloro-2-fluorophenyl)amino)-7-((3-methyl-3-azabicyclo[3.1.0]hexan-1-yl)ethynyl)quinazolin-6-yl)acrylamide]"
100 to 500 nM,> 500 nM,≤ 50 nM,> 500 nM,"C=CC(=O)Nc1cc2c(Nc3cccc(Cl)c3F)ncnc2cc1C#CC1(C)CCCN(C)C1 (stereo not shown) [Compound 66, N-(4-((3-chloro-2-fluorophenyl)amino)-7-((1,3-dimethylpiperidin-3-yl)ethynyl)quinazolin-6-yl)acrylamide]"
≤ 50 nM,100 to 500 nM,50 to 100 nM,> 500 nM,"C=CC(=O)Nc1cc2c(Nc3ccc(OCc4ccccn4)c(Cl)c3)ncnc2cc1C#CC1(C)CCCN(C)C1 (stereo not shown) [Compound 67, N-(4-((3-chloro-4-(pyridin-2-ylmethoxy)phenyl)amino)-7-((1,3-dimethylpiperidin-3-yl)ethynyl)quinazolin-6-yl)acrylamide]"
> 500 nM,> 500 nM,100 to 500 nM,> 500 nM,"C=CC(=O)Nc1cc2c(Nc3cccc(Cl)c3F)ncnc2cc1C#CC1(C)CCN(CC(F)(F)F)C1 (stereo not shown) [Compound 68, N-(4-((3-chloro-2-fluorophenyl)amino)-7-((3-methyl-1-(2,2,2-trifluoroethyl)-pyrrolidin-3-yl)ethynyl)quinazolin-6-yl)acrylamide]"
100 to 500 nM,> 500 nM,≤ 50 nM,100 to 500 nM,"C=CC(=O)Nc1cc2c(Nc3cccc(Cl)c3F)ncnc2cc1C#CC1(C)CCN(C2COC2)C1 (stereo not shown) [Compound 69, N-(4-((3-chloro-2-fluorophenyl)amino)-7-((3-methyl-1-(oxetan-3-yl)pyrrolidin-3-yl)ethynyl)quinazolin-6-yl)acrylamide]"
≤ 50 nM,≤ 50 nM,≤ 50 nM,50 to 100 nM,"CC#CC(=O)Nc1cc2c(Nc3ccc(OCc4ccccn4)c(Cl)c3)ncnc2cc1C#CC1(C)CCN(C)C1 (stereo not shown) [Compound 70, N-(4-((3-chloro-4-(pyridin-2-ylmethoxy)phenyl)amino)-7-((1,3-dimethylpyrrolidin-3-yl)ethynyl)quinazolin-6-yl)but-2-ynamide]"
≤ 50 nM,100 to 500 nM,≤ 50 nM,> 500 nM,"C=CC(=O)Nc1cc2c(Nc3ccc(OCc4ccccn4)c(Cl)c3)ncnc2cc1C#CC12CCC(CC1)N2C [Compound 71, N-(4-((3-chloro-4-(pyridin-2-ylmethoxy)phenyl)amino)-7-((7-methyl-7-azabicyclo[2.2.1]heptan-1-yl)ethynyl)quinazolin-6-yl)acrylamide]"
≤ 50 nM,50 to 100 nM,≤ 50 nM,> 500 nM,"C=CC(=O)Nc1cc2c(Nc3ccc(OCc4ccccn4)c(Cl)c3)ncnc2cc1C#CC1(C)CCN(C)CC1 [Compound 72, N-(4-((3-chloro-4-(pyridin-2-ylmethoxy)phenyl)amino)-7-((1,4-dimethylpiperidin-4-yl)ethynyl)quinazolin-6-yl)acrylamide]"
≤ 50 nM,100 to 500 nM,≤ 50 nM,50 to 100 nM,"C=CC(=O)Nc1cc2c(Nc3ccc(O)c(Cl)c3)ncnc2cc1C#C[C@@H]1[C@H]2CN(C)C[C@@H]12 [Compound 73, N-(4-((3-chloro-4-hydroxyphenyl)amino)-7-(((1R,5S,6s)-3-methyl-3-azabicyclo[3.1.0]hexan-6-yl)ethynyl)quinazolin-6-yl)acrylamide]"
50 to 100 nM,> 500 nM,≤ 50 nM,100 to 500 nM,"CC#CC(=O)Nc1cc2c(Nc3cccc(Cl)c3F)ncnc2cc1C#C[C@@H]1[C@H]2CN(C)C[C@@H]12 [Compound 74, N-(4-((3-chloro-2-fluorophenyl)amino)-7-(((1R,5S,6s)-3-methyl-3-azabicyclo[3.1.0]hexan-6-yl)ethynyl)quinazolin-6-yl)but-2-ynamide]"
100 to 500 nM,> 500 nM,≤ 50 nM,100 to 500 nM,"C=CC(=O)Nc1cc2c(Nc3cc(Cl)ccc3F)ncnc2cc1C#C[C@@H]1[C@H]2CN(C)C[C@@H]12 [Compound 75, N-(4-((5-chloro-2-fluorophenyl)amino)-7-(((1R,5S,6s)-3-methyl-3-azabicyclo[3.1.0]hexan-6-yl)ethynyl)quinazolin-6-yl)acrylamide]"
50 to 100 nM,100 to 500 nM,100 to 500 nM,> 500 nM,"C=CC(=O)Nc1cc2c(Nc3ccc(OCc4cccc(F)c4)c(Cl)c3)ncnc2cc1C#C[C@@H]1[C@H]2CN(C)C[C@@H]12 [Compound 76, N-(4-((3-chloro-4-((3-fluorobenzyl)oxy)-phenyl)amino)-7-(((1R,5S,6s)-3-methyl-3-azabicyclo[3.1.0]hexan-6-yl)ethynyl)quinazolin-6-yl)acrylamide]"
≤ 50 nM,100 to 500 nM,≤ 50 nM,≤ 50 nM,"C=CC(=O)Nc1cc2c(Nc3cccc(Cl)c3F)ncnc2cc1C#CC1CCN(C)C1 (stereo not shown) [Compound 77, N-(4-((3-chloro-2-fluorophenyl)amino)-7-((1-methylpyrrolidin-3-yl)ethynyl)quinazolin-6-yl)acrylamide]"
≤ 50 nM,100 to 500 nM,≤ 50 nM,≤ 50 nM,"C=CC(=O)Nc1cc2c(Nc3cccc(Cl)c3F)ncnc2cc1C#C[C@@H]1[C@H]2CN(C)C[C@@H]12 [Compound 78, N-(4-((3-chloro-2-fluorophenyl)amino)-7-(((1R,5S,6s)-3-methyl-3-azabicyclo[3.1.0]hexan-6-yl)ethynyl)quinazolin-6-yl)acrylamide]"
> 500 nM,> 500 nM,> 500 nM,> 500 nM,"C=CC(=O)Nc1cc2c(Nc3ccc(OCc4ccccn4)c(Cl)c3)ncnc2cc1C#C[C@H]1[C@H]2CN(C)C[C@@H]12 [Compound 79, N-(4-((3-chloro-4-(pyridin-2-ylmethoxy)phenyl)amino)-7-(((1R,5S,6r)-3-methyl-3-azabicyclo[3.1.0]hexan-6-yl)ethynyl)quinazolin-6-yl)acrylamide]"
50 to 100 nM,100 to 500 nM,≤ 50 nM,50 to 100 nM,"C=CC(=O)Nc1cc2c(Nc3ccc(Cl)c(Cl)c3F)ncnc2cc1C#CC1C2COCC12 (stereo not shown) [Compound No. 80, N-(7-(3-oxabicyclo[3.1.0]hexan-6-ylethynyl)-4-((3,4-dichloro-2-fluorophenyl)amino)quinazolin-6-yl)acrylamide]"

# — patent US12435046B2, “Alkynyl quinazoline compounds” (Black Diamond Therapeutics, Inc., priority 2019, dated 2025)
